Source: US20220128564A1, “USE OF A STIMULATING AGENT TO ASSAY IMMUNE CELL POTENCY” (RESEARCH INSTITUTE AT NATIONWIDE CHILDREN'S HOSPITAL, priority 2019, published 2022)

Assays:
expanded NK cells = assay: PHA-induced cytokine assay, expanded NK cells; format: cell-based; conditions: expanded NK cells (N=18), 10^6 cells, 1 hour stimulation with PHA, supernatant
From the text: (§1) Use of tumor cells to test effector function of therapeutic immune cells has been a standard practice. These target cells add biological variabilities to the outcomes of assay. Also, this assay set up is more tedious and complicated adding up variabilities due to target condition, plate set up, person-to-person difference in techniques. The therapeutic response of NK cells via comparison of a PHA cytokine assay against a widely use tumor cell (K562) mediated cytokine assay. The levels of cytokine indicate potency of the response from the NK cells.
(§2) After establishing an optimal number of cells (10^6) for the assay, multiple donors of fresh peripheral blood NK cells (N=10) and expanded NK cells (N=18) were stimulated with PHA to produce cytokines, and after 1 hour cytokine in the supernatant was assessed. Expression of most cytokines are similar between the two types of NK cells, but several cytokines and chemokines related to NK cell function were highly differentially expressed in response to stimulation (FIG. 6). Next the expression of 6 cytokines in fresh and expanded NK cells was measured after 1 hour stimulation with PHA. Pentraxin-3 (mean 1,062 vs 7), IL-8 (mean 821 vs 11), and Chitinase 3-like 1 (mean 620 vs 7) were highly overexpressed in fresh NK cells compared to expanded NK cells, and IFN-γ (mean 15 vs 105), IL-2 (mean 3 vs 141), and CD30 (mean9 vs. 156) were highly overexpressed in expanded NK cells compared to fresh NK cells (FIG. 7). On the basis of overexpression alone, a cut-off of expressing 10 pg/mL of both IFN-γ and IL-2 has 94% specificity […] and 89% sensitivity (16 of 18) in differentiating expanded NK cells from fresh peripheral blood NK cells (FIG. 8).

[1] = tested on: fresh peripheral blood NK cells; assay: PHA-induced cytokine assay, fresh peripheral blood NK cells; format: cell-based; conditions: fresh NK cells (N=10), 10^6 cells, 1 hour stimulation with PHA, supernatant
From the text: as §1, §2

phytohemagglutinin [PHA]
CD30 expression (mean) (expanded NK cells): 156 | Chitinase 3-like 1 expression (mean) (expanded NK cells): 7 | IFN-γ expression (mean) (expanded NK cells): 105 | IL-2 expression (mean) (expanded NK cells): 141 | IL-8 expression (mean) (expanded NK cells): 11 | Pentraxin-3 expression (mean) (expanded NK cells): 7 | CD30 expression (mean) [1]: 9 | Chitinase 3-like 1 expression (mean) [1]: 620 | IFN-γ expression (mean) [1]: 15 | IL-2 expression (mean) [1]: 3 | IL-8 expression (mean) [1]: 821 | Pentraxin-3 expression (mean) [1]: 1,062
